The values below come from patent US5168100A, “HP530 compounds and process for preparing the same” (Sapporo Breweries Limited, priority 1990, dated 1992).

Data set [1] concerns Klebsiella pneumoniae JCM1662. Kind of data set: Antimicrobial activity (MIC), Klebsiella pneumoniae. In kind it is cell-based. An excerpt:
(§1) The minimum inhibitory concentrations (MIC's) of the HP530 compounds and their derivatives of the invention against bacteria and fungi are shown in Table 2.

A further data set relates to Escherichia coli JCM1649. Kind of data set: Antimicrobial activity (MIC), Escherichia coli. It is filed as cell-based.
From the text: as §1

A further data set relates to Proteus vulgaris JCM1668. Description: Antimicrobial activity (MIC), Proteus vulgaris. In kind it is cell-based.
From the text: as §1

For data set [2], the system named is Saccharomyces cerevisiae JCM1499. Description: Antimicrobial activity (MIC), Saccharomyces cerevisiae. In kind it is cell-based.
From the text: as §1

Data set [3] deals with Staphylococcus epidermidis JCM2414. Description: Antimicrobial activity (MIC), Staphylococcus epidermidis. It is filed as cell-based.
From the text: as §1

In another data set the test system is CDF1 mice. Description: Acute toxicity in CDF1 mice. In kind it is in vivo, mouse. The settings on record: intraperitoneal, three CDF1 mice.
For data set [4], the system named is Xanthomonas maltophilia JCM1975. Kind of data set: Antimicrobial activity (MIC), Xanthomonas maltophilia. The conditions noted are these: Stenotrophomonas maltophilia. It is filed as cell-based.
From the text: as §1

Data set [5] relates to mouse fibrosarcoma Meth-A cell line. Kind of data set: Antitumor activity, increase in life span of CDF1 mice inoculated with Meth-A cells. The conditions noted are these: day 1-4. It is filed as in vivo. From the text:
1) CDF1 mice were inoculated intraperitoneally with 1×10^6 cells of mouse fibrosarcoma Meth-A cell line on day 0. HP530 compounds and their derivatives dissolved in a physiological salt solution were administrated intraperitoneally once a day on day 1-4. Increase in life span is represented by the percentage of the ratio of the mean number of surviving days (T) of the treated groups of mice to the mean number of surviving days (C) of the untreated groups of mice.

The next data set concerns W98 cell line. Description: Cytotoxicity (IC100) against W98 cell line. The conditions noted are these: Homo sapiens; W98 cells, final 10% methanol solutions; read-out: IC100 (100% growth inhibiting concentration). It is filed as cell-based. On the procedure:
2) Cytotoxicity (IC100) against W98 cell line obtained by converting the lung cells of a human emryo by an SV40 virus was examined in the following way. When the HP530 compounds and their derivatives dissolved in methanol were added to culture solutions in such a manner that the culture solutions were prepared final 10% methanol solutions, the cytotoxicity of the HP530 compounds and their derivatives against the growth of the W98 cells in the culture solution was measured as 100% growth inhibiting concentration (IC100).

Data set [6] deals with Bacillus subtilis M45Rec^-. Kind of data set: Antimicrobial activity (MIC), Bacillus subtilis M45Rec^-. It is filed as cell-based.
From the text: as §1

In data set [7] the test system is Micrococcus luteus JCM1464. Description: Antimicrobial activity (MIC), Micrococcus luteus. It is filed as cell-based.
From the text: as §1

The subject of data set [8] is Staphylococcus aureus JCM2151. Description: Antimicrobial activity (MIC), Staphylococcus aureus. It is filed as cell-based.
From the text: as §1

Data set [9] concerns Bacillus subtilis H17Rec^+. Description: Antimicrobial activity (MIC), Bacillus subtilis H17Rec^+. It is filed as cell-based.
From the text: as §1

The test system of data set [10] is Salmonella typhimurium TA1535. Kind of data set: Antimicrobial activity (MIC), Salmonella typhimurium. It is filed as cell-based. The settings on record: Salmonella enterica.
From the text: as §1

In the next data set the test system is Candida albicans JCM1542. Description: Antimicrobial activity (MIC), Candida albicans. In kind it is cell-based.
From the text: as §1

The mark [11] stands for this setting: ethyl acetate, acetone, n-hexane.
Setting [12] is: solvents in which soluble (acidic water, organic solvents).

SMILES strings stand for the structures. Converted amounts (≈) assume the structure as drawn. Some results are limits rather than exact numbers.

`CC=CC1OC1(C)c1cc(=O)c2c(C)cc3c(c2o1)C(=O)c1c(ccc(C2CC(C)(N(C)C)C(O)C(C)O2)c1O)C3=O` (stereo not drawn) [Deacetyl HP530D]: the MIC in data set [1] was greater than 100 µg/mL; against Escherichia coli JCM1649 it was greater than 100 µg/mL; in the data set on Proteus vulgaris JCM1668 it was greater than 100 µg/mL; in [2] it was 50 µg/mL (≈ 87.2 µM); in [3] it was 6.3 µg/mL (≈ 11 µM); in [4], 50 µg/mL (≈ 87.2 µM). Also, the MIC was 0.4 µg/mL (≈ 0.697 µM) in [6]; 1.6 µg/mL (≈ 2.79 µM) in data set [7]; 1.6 µg/mL (≈ 2.79 µM) in data set [8]; 12.5 µg/mL (≈ 21.8 µM) in [9]; 3.2 µg/mL (≈ 5.58 µM) in [10]; greater than 100 µg/mL in the data set on Candida albicans JCM1542. Moreover, the Acute toxicity result with CDF1 mice (20 mg/kg) is given as “no toxicity”. In addition, the “Antitumor Activity T/C” value in [5] (0.25 mg/kg i.p. once a day) is listed as 92%; in data set [5] (0.5 mg/kg i.p. once a day) it was 108%; in [5] (1.0 mg/kg i.p. once a day) it was 123%; in [5] (2.0 mg/kg i.p. once a day) it was 185%. Also, the IC100 with W98 cell line was 0.00015 µg/mL. The Solubility result in the data set “Solubility” (setting [11]) was “hardly soluble in ethyl acetate, acetone and n-hexane”; in the data set “Solubility” (setting [12]), “Soluble in acidic water, methanol, chloroform and benzene”; in the data set “Solubility” (water), “insoluble in water”.

Regarding `CC=C(C)c1cc(=O)c2c(C)cc3c(c2o1)C(=O)c1c(ccc(C2CC(C)(N(C)C)C(OC(C)=O)C(C)O2)c1O)C3=O` (stereo not drawn) [HP530G], the MIC in data set [1] was greater than 100 µg/mL; with Escherichia coli JCM1649, greater than 100 µg/mL; in the data set on Proteus vulgaris JCM1668 it was greater than 100 µg/mL; in data set [2], greater than 100 µg/mL; in [3], 25 µg/mL (≈ 43.6 µM); in data set [4], greater than 100 µg/mL. Besides, the minimum inhibitory concentration (MIC) in data set [6] is 3.2 µg/mL (≈ 5.58 µM); in data set [7], 12.5 µg/mL (≈ 21.8 µM); in data set [8] it was 50 µg/mL (≈ 87.2 µM); in [9], 100 µg/mL (≈ 174 µM); in [10], 100 µg/mL (≈ 174 µM); in the data set on Candida albicans JCM1542 it was greater than 100 µg/mL. For the same compound, the Acute toxicity result in the data set on CDF1 mice (20 mg/kg) is “no toxicity”. Also, the “Antitumor Activity T/C” value in [5] (2.5 mg/kg i.p. once a day) was 112%; in [5] (5.0 mg/kg i.p. once a day) it was 123%; in data set [5] (10.0 mg/kg i.p. once a day) it was 115%; in data set [5] (20.0 mg/kg i.p. once a day), 123%. Besides, the IC100 in the data set on W98 cell line is 0.1 µg/mL. Besides, the Solubility result in the data set “Solubility” (setting [11]) was “hardly soluble in ethyl acetate, acetone and n-hexane”; in the data set “Solubility” (setting [12]), “Soluble in acidic water, methanol, chloroform and benzene”; in “Solubility” (water) it was “insoluble in water”.

As for `CC(=O)OC1C(C)OC(c2ccc3c(c2O)C(=O)c2c(cc(C)c4c(=O)cc(C5(C)OC5C)oc24)C3=O)CC1(C)N(C)C` (stereo not drawn) [HP530E], the MIC (in data set [1]; in the data set on Escherichia coli JCM1649; in the data set with Proteus vulgaris JCM1668; in [2]; in data set [3]; in [4]) was greater than 100 µg/mL each time. Further, the minimum inhibitory concentration (MIC) in [6] is 0.2 µg/mL (≈ 0.339 µM); in data set [7], 0.8 µg/mL (≈ 1.36 µM); in [8], 6.3 µg/mL (≈ 10.7 µM); in data set [9] it was 12.5 µg/mL (≈ 21.2 µM); in data set [10], 0.8 µg/mL (≈ 1.36 µM); in the data set on Candida albicans JCM1542, greater than 100 µg/mL. The Acute toxicity result with CDF1 mice (20 mg/kg) was “no toxicity”. The “Antitumor Activity T/C” value in data set [5] (2.5 mg/kg i.p. once a day) is reported as 104%; in data set [5] (5.0 mg/kg i.p. once a day), 127%; in [5] (10.0 mg/kg i.p. once a day) it was greater than 196%; in data set [5] (20.0 mg/kg i.p. once a day), greater than 192%. Besides, the IC100 with W98 cell line was 0.0006 µg/mL. The Solubility entry was “hardly soluble in ethyl acetate, acetone and n-hexane” in “Solubility” (setting [11]); “Soluble in acidic water, methanol, chloroform and benzene” in “Solubility” (setting [12]); “insoluble in water” in “Solubility” (water).

As to `CC=CC1OC1(C)c1cc(=O)c2c(C)cc3c(c2o1)C(=O)c1c(ccc(C2CC(C)(N(C)C)C(OC(C)=O)C(C)O2)c1O)C3=O` (stereo not drawn) [HP530D], the minimal inhibitory concentration (MIC) in data set [1] was greater than 100 µg/mL; in the data set with Escherichia coli JCM1649 it was greater than 100 µg/mL; against Proteus vulgaris JCM1668, greater than 100 µg/mL; in data set [2], 6.3 µg/mL (≈ 10.2 µM); in data set [3], 3.2 µg/mL (≈ 5.2 µM); in data set [4], 3.2 µg/mL (≈ 5.2 µM). Besides, the MIC in data set [6] amounted to 0.4 µg/mL (≈ 0.65 µM); in data set [7], 1.6 µg/mL (≈ 2.6 µM); in data set [8], 1.6 µg/mL (≈ 2.6 µM); in data set [9] it was 3.2 µg/mL (≈ 5.2 µM); in data set [10], 1.6 µg/mL (≈ 2.6 µM); against Candida albicans JCM1542, 100 µg/mL (≈ 162 µM). Also, in the data set on CDF1 mice (10 mg/kg), the Acute toxicity entry is reported as “no toxicity”. The “Antitumor Activity T/C” value in data set [5] (0.25 mg/kg i.p. once a day) is 108%; in data set [5] (0.5 mg/kg i.p. once a day), 123%; in [5] (1.0 mg/kg i.p. once a day), 192%; in data set [5] (2.0 mg/kg i.p. once a day) it was greater than 215%. The IC100 with W98 cell line was found to be 0.0006 µg/mL. For the same compound, the Solubility result in “Solubility” (setting [11]) is “hardly soluble in ethyl acetate, acetone and n-hexane”; in “Solubility” (setting [12]), “Soluble in acidic water, methanol and chloroform”; in the data set “Solubility” (water) it was “insoluble in water”.

In the case of `Cc1cc2c(c3oc(C4(C)OC4C)cc(=O)c13)C(=O)c1c(ccc(C3CC(C)(N(C)C)C(O)C(C)O3)c1O)C2=O` (stereo not drawn) [Deacetyl HP530E], the MIC in data set [1] was greater than 100 µg/mL; against Escherichia coli JCM1649 it was greater than 100 µg/mL; with Proteus vulgaris JCM1668, greater than 100 µg/mL; in [2], greater than 100 µg/mL; in data set [3], 6.3 µg/mL (≈ 11.5 µM); in data set [4], 25 µg/mL (≈ 45.7 µM). Also, the MIC is 0.2 µg/mL (≈ 0.365 µM) in data set [6]; 0.4 µg/mL (≈ 0.73 µM) in [7]; 3.2 µg/mL (≈ 5.84 µM) in data set [8]; 6.3 µg/mL (≈ 11.5 µM) in [9]; 0.4 µg/mL (≈ 0.73 µM) in data set [10]; greater than 100 µg/mL against Candida albicans JCM1542. Moreover, the Acute toxicity result in the data set with CDF1 mice (5 mg/kg) is “no toxicity”. Also, the “Antitumor Activity T/C” value in data set [5] (1.25 mg/kg i.p. once a day) was 107%; in data set [5] (2.5 mg/kg i.p. once a day) it was 183%; in [5] (5.0 mg/kg i.p. once a day) it was greater than 187%; in data set [5] (10.0 mg/kg i.p. once a day) it was 83%. In addition, the IC100 with W98 cell line worked out at 0.00015 µg/mL. The Solubility entry was “hardly soluble in ethyl acetate, acetone and n-hexane” in the data set “Solubility” (setting [11]); “Soluble in acidic water, methanol, chloroform and benzene” in “Solubility” (setting [12]); “insoluble in water” in the data set “Solubility” (water).

The term MIC denotes the lowest concentration found to suppress growth.
